“And” between values parts separate entries of the source, which are not always exact repeats. Equal entries are not always repeated. HELM strings list units from the 5' end as sugar, base in round brackets, then linkage (d deoxyribose, r ribose, m 2'-O-methyl, p phosphodiester). Strings are as the collection lists them, not checked against the first reports. ss, as = sense and antisense strand; [una] = unlocked nucleic acid; [s4r] = 4'-thioribose; [fl2r] = 2'-fluoro
Also: test system not given here.

For this series the following is noted: siRNA.
“RNA1{[s4r](C)p.[s4r](G)p.[s4r](U)p.[s4r](A)p.r(C)p.r(G)p.r(C)p.r(G)p.r(G)p.r(A)p.r(A)p.r(U)p.r(A)p.r(C)p.r(U)p.[s4r](U)p.[s4r](C)p.[s4r](G)p.[s4r](A)p.r(T)p.r(T)}|RNA2{r(U)p.r(C)p.r(G)p.r(A)p.r(A)p.r(G)p.r(U)p.r(A)p.r(U)p.r(U)p.r(C)p.r(C)p.r(G)p.r(C)p.r(G)p.r(U)p.r(A)p.r(C)p.r(G)p.r(T)p.r(T)}$$$RNA1{StrandType:ss}|RNA2{StrandType:as}$” returned a target mRNA knockdown of 94.7%. Under “RNA1{[s4r](C)p.[s4r](G)p.[s4r](U)p.[s4r](A)p.r(C)p.r(G)p.r(C)p.r(G)p.r(G)p.r(A)p.r(A)p.r(U)p.r(A)p.r(C)p.r(U)p.r(U)p.r(C)p.r(G)p.r(A)p.r(T)p.r(T)}|RNA2{[s4r](U)p.[s4r](C)p.r(G)p.r(A)p.r(A)p.r(G)p.r(U)p.r(A)p.r(U)p.r(U)p.r(C)p.r(C)p.r(G)p.r(C)p.r(G)p.r(U)p.r(A)p.[s4r](C)p.[s4r](G)p.r(T)p.r(T)}$$$RNA1{StrandType:ss}|RNA2{StrandType:as}$” stands 85.4%; under “RNA1{[s4r](C)p.[s4r](G)p.[s4r](U)p.[s4r](A)p.r(C)p.r(G)p.r(C)p.r(G)p.r(G)p.r(A)p.r(A)p.r(U)p.r(A)p.r(C)p.r(U)p.r(U)p.r(C)p.r(G)p.r(A)p.r(T)p.r(T)}|RNA2{r(U)p.r(C)p.r(G)p.r(A)p.r(A)p.r(G)p.r(U)p.r(A)p.r(U)p.r(U)p.r(C)p.r(C)p.r(G)p.r(C)p.r(G)p.[s4r](U)p.[s4r](A)p.[s4r](C)p.[s4r](G)p.r(T)p.r(T)}$$$RNA1{StrandType:ss}|RNA2{StrandType:as}$”, 86.1%; under “RNA1{[s4r](C)p.[s4r](G)p.[s4r](U)p.[s4r](A)p.r(C)p.r(G)p.r(C)p.r(G)p.r(G)p.r(A)p.r(A)p.r(U)p.r(A)p.r(C)p.r(U)p.r(U)p.r(C)p.r(G)p.r(A)p.r(T)p.r(T)}|RNA2{r(U)p.r(C)p.r(G)p.r(A)p.r(A)p.r(G)p.r(U)p.r(A)p.r(U)p.r(U)p.r(C)p.r(C)p.r(G)p.r(C)p.r(G)p.r(U)p.r(A)p.r(C)p.r(G)p.r(T)p.r(T)}$$$RNA1{StrandType:ss}|RNA2{StrandType:as}$”, 94.2%.

Substance “RNA1{[s4r](C)p.[s4r](G)p.r(U)p.r(A)p.r(C)p.r(G)p.r(C)p.r(G)p.r(G)p.r(A)p.r(A)p.r(U)p.r(A)p.r(C)p.r(U)p.r(U)p.r(C)p.[s4r](G)p.[s4r](A)p.r(T)p.r(T)}|RNA2{[s4r](U)p.[s4r](C)p.r(G)p.r(A)p.r(A)p.r(G)p.r(U)p.r(A)p.r(U)p.r(U)p.r(C)p.r(C)p.r(G)p.r(C)p.r(G)p.r(U)p.r(A)p.[s4r](C)p.[s4r](G)p.r(T)p.r(T)}$$$RNA1{StrandType:ss}|RNA2{StrandType:as}$” came in with a target mRNA knockdown of 85.3%. Turning to “RNA1{[s4r](C)p.[s4r](G)p.r(U)p.r(A)p.r(C)p.r(G)p.r(C)p.r(G)p.r(G)p.r(A)p.r(A)p.r(U)p.r(A)p.r(C)p.r(U)p.r(U)p.r(C)p.[s4r](G)p.[s4r](A)p.r(T)p.r(T)}|RNA2{r(U)p.r(C)p.r(G)p.r(A)p.r(A)p.r(G)p.r(U)p.r(A)p.r(U)p.r(U)p.r(C)p.r(C)p.r(G)p.r(C)p.r(G)p.r(U)p.r(A)p.[s4r](C)p.[s4r](G)p.r(T)p.r(T)}$$$RNA1{StrandType:ss}|RNA2{StrandType:as}$”, the target mRNA knockdown is 92.1%. “RNA1{[s4r](C)p.[s4r](G)p.r(U)p.r(A)p.r(C)p.r(G)p.r(C)p.r(G)p.r(G)p.r(A)p.r(A)p.r(U)p.r(A)p.r(C)p.r(U)p.r(U)p.r(C)p.[s4r](G)p.[s4r](A)p.r(T)p.r(T)}|RNA2{r(U)p.r(C)p.r(G)p.r(A)p.r(A)p.r(G)p.r(U)p.r(A)p.r(U)p.r(U)p.r(C)p.r(C)p.r(G)p.r(C)p.r(G)p.r(U)p.r(A)p.r(C)p.r(G)p.r(T)p.r(T)}$$$RNA1{StrandType:ss}|RNA2{StrandType:as}$” returned a target mRNA knockdown of 95.3%. As for “RNA1{[s4r](C)p.[s4r](G)p.r(U)p.r(A)p.r(C)p.r(G)p.r(C)p.r(G)p.r(G)p.r(A)p.r(A)p.r(U)p.r(A)p.r(C)p.r(U)p.r(U)p.r(C)p.r(G)p.r(A)p.r(T)p.r(T)}|RNA2{[s4r](U)p.[s4r](C)p.r(G)p.r(A)p.r(A)p.r(G)p.r(U)p.r(A)p.r(U)p.r(U)p.r(C)p.r(C)p.r(G)p.r(C)p.r(G)p.r(U)p.r(A)p.[s4r](C)p.[s4r](G)p.r(T)p.r(T)}$$$RNA1{StrandType:ss}|RNA2{StrandType:as}$”, the figure is 90.4%. In the case of “RNA1{[s4r](C)p.[s4r](G)p.r(U)p.r(A)p.r(C)p.r(G)p.r(C)p.r(G)p.r(G)p.r(A)p.r(A)p.r(U)p.r(A)p.r(C)p.r(U)p.r(U)p.r(C)p.r(G)p.r(A)p.r(T)p.r(T)}|RNA2{r(U)p.r(C)p.r(G)p.r(A)p.r(A)p.r(G)p.r(U)p.r(A)p.r(U)p.r(U)p.r(C)p.r(C)p.r(G)p.r(C)p.r(G)p.r(U)p.r(A)p.[s4r](C)p.[s4r](G)p.r(T)p.r(T)}$$$RNA1{StrandType:ss}|RNA2{StrandType:as}$”, the target mRNA knockdown was determined as 91.3%. For “RNA1{[s4r](C)p.[s4r](G)p.r(U)p.r(A)p.r(C)p.r(G)p.r(C)p.r(G)p.r(G)p.r(A)p.r(A)p.r(U)p.r(A)p.r(C)p.r(U)p.r(U)p.r(C)p.r(G)p.r(A)p.r(T)p.r(T)}|RNA2{r(U)p.r(C)p.r(G)p.r(A)p.r(A)p.r(G)p.r(U)p.r(A)p.r(U)p.r(U)p.r(C)p.r(C)p.r(G)p.r(C)p.r(G)p.r(U)p.r(A)p.r(C)p.r(G)p.r(T)p.r(T)}$$$RNA1{StrandType:ss}|RNA2{StrandType:as}$”, the target mRNA knockdown was 95.5%.

For the substance “RNA1{[s4r](C)p.r(G)p.[s4r](U)p.r(A)p.[s4r](C)p.r(G)p.[s4r](C)p.r(G)p.r(G)p.r(A)p.r(A)p.[s4r](U)p.r(A)p.[s4r](C)p.[s4r](U)p.[s4r](U)p.[s4r](C)p.r(G)p.r(A)p.r(T)p.r(T)}|RNA2{r(U)p.r(C)p.r(G)p.r(A)p.r(A)p.r(G)p.r(U)p.r(A)p.r(U)p.r(U)p.r(C)p.r(C)p.r(G)p.r(C)p.r(G)p.r(U)p.r(A)p.r(C)p.r(G)p.r(T)p.r(T)}$$$RNA1{StrandType:ss}|RNA2{StrandType:as}$”, the target mRNA knockdown came out at 92.9%. For the substance “RNA1{[s4r](C)p.r(G)p.r(U)p.r(A)p.[s4r](C)p.r(G)p.[s4r](C)p.r(G)p.r(G)p.r(A)p.r(A)p.r(U)p.r(A)p.[s4r](C)p.r(U)p.r(U)p.[s4r](C)p.r(G)p.r(A)p.r(T)p.r(T)}|RNA2{r(U)p.r(C)p.r(G)p.r(A)p.r(A)p.r(G)p.r(U)p.r(A)p.r(U)p.r(U)p.r(C)p.r(C)p.r(G)p.r(C)p.r(G)p.r(U)p.r(A)p.r(C)p.r(G)p.r(T)p.r(T)}$$$RNA1{StrandType:ss}|RNA2{StrandType:as}$”, the target mRNA knockdown worked out at 93.6%.

With “RNA1{[una](A)p.r(C)p.r(A)p.r(G)p.r(A)p.r(G)p.r(U)p.r(C)p.r(C)p.r(C)p.r(U)p.r(C)p.r(A)p.r(A)p.r(A)p.r(C)p.r(A)p.r(G)p.r(A)p.[una](U)p.[una](U)}|RNA2{r(U)p.r(C)p.r(U)p.r(G)p.r(U)p.r(U)p.r(U)p.r(G)p.r(A)p.r(G)p.r(G)p.r(G)p.r(A)p.r(C)p.r(U)p.r(C)p.r(U)p.r(G)p.r(U)p.[una](U)p.[una](U)}$$$RNA1{StrandType:ss}|RNA2{StrandType:as}$”, the target mRNA knockdown is 94% and 92% and 91%.

In the case of “RNA1{[una](U)p.r(G)p.r(A)p.r(A)p.r(U)p.r(C)p.r(A)p.r(G)p.r(A)p.r(A)p.r(G)p.r(A)p.r(U)p.r(G)p.r(A)p.r(A)p.r(G)p.r(U)p.r(C)p.r(A)p.r(A)}|RNA2{[una](G)p.r(A)p.r(C)p.r(U)p.r(U)p.r(C)p.r(A)p.r(U)p.r(C)p.r(U)p.r(U)p.r(C)p.r(U)p.r(G)p.r(A)p.r(U)p.r(U)p.r(C)p.r(A)p.r(A)p.r(G)}$$$RNA1{StrandType:ss}|RNA2{StrandType:as}$”, the target mRNA knockdown came out at 0%. As for “RNA1{d(G)p.d(C)p.d(A)p.d(G)p.d(C)p.d(A)p.d(C)p.d(G)p.d(A)p.d(C)p.d(U)p.d(U)p.d(C)p.d(U)p.d(U)p.d(C)p.d(A)p.d(A)p.d(G)p.r(T)p.r(T)}|RNA2{d(C)p.d(U)p.d(U)p.d(G)p.d(A)p.d(A)p.d(G)p.d(A)p.d(A)p.d(G)p.d(U)p.d(C)p.d(G)p.d(U)p.d(G)p.d(C)p.d(U)p.d(G)p.d(C)p.r(T)p.r(T)}$$$RNA1{StrandType:ss}|RNA2{StrandType:as}$”, the figure is 0%; as for “RNA1{d(G)p.d(C)p.d(A)p.d(G)p.d(C)p.d(A)p.d(C)p.d(G)p.d(A)p.d(C)p.d(U)p.d(U)p.d(C)p.d(U)p.d(U)p.d(C)p.d(A)p.d(A)p.d(G)p.r(T)p.r(T)}|RNA2{r(C)p.r(U)p.r(U)p.r(G)p.r(A)p.r(A)p.r(G)p.r(A)p.r(A)p.r(G)p.r(U)p.r(C)p.r(G)p.r(U)p.r(G)p.r(C)p.r(U)p.r(G)p.r(C)p.r(T)p.r(T)}$$$RNA1{StrandType:ss}|RNA2{StrandType:as}$”, 38%.

“RNA1{m(A)p.m(A)p.m(G)p.m(G)p.m(A)p.m(G)p.m(A)p.m(U)p.m(C)p.m(A)p.m(A)p.m(C)p.m(A)p.m(U)p.m(U)p.m(U)p.m(U)p.m(C)p.m(A)p.r(T)p.r(T)}|RNA2{[fl2r](U)p.r(G)p.r(A)p.r(A)p.r(A)p.r(A)p.[fl2r](U)p.r(G)p.r(U)p.r(U)p.r(G)p.r(A)p.[fl2r](U)p.[fl2r](C)p.[fl2r](U)p.[fl2r](C)p.[fl2r](C)p.[fl2r](U)p.[fl2r](U)p.r(T)p.r(T)}$$$RNA1{StrandType:ss}|RNA2{StrandType:as}$” came in with a target mRNA knockdown of 71%. As for “RNA1{m(A)p.m(A)p.m(G)p.m(G)p.m(A)p.m(G)p.m(A)p.m(U)p.m(C)p.m(A)p.m(A)p.m(C)p.m(A)p.m(U)p.m(U)p.m(U)p.m(U)p.m(C)p.m(A)p.r(T)p.r(T)}|RNA2{m(U)p.r(G)p.r(A)p.r(A)p.r(A)p.r(A)p.m(U)p.r(G)p.r(U)p.r(U)p.r(G)p.r(A)p.m(U)p.m(C)p.m(U)p.m(C)p.m(C)p.m(U)p.m(U)p.r(T)p.r(T)}$$$RNA1{StrandType:ss}|RNA2{StrandType:as}$”, the figure is 29%. As for “RNA1{m(A)p.m(A)p.m(G)p.m(G)p.m(A)p.m(G)p.m(A)p.m(U)p.m(C)p.m(A)p.m(A)p.m(C)p.m(A)p.m(U)p.m(U)p.m(U)p.m(U)p.m(C)p.m(A)p.r(T)p.r(T)}|RNA2{r(U)p.r(G)p.r(A)p.r(A)p.r(A)p.r(A)p.r(U)p.r(G)p.r(U)p.r(U)p.r(G)p.r(A)p.r(U)p.r(C)p.r(U)p.r(C)p.r(C)p.m(U)p.m(U)p.r(T)p.r(T)}$$$RNA1{StrandType:ss}|RNA2{StrandType:as}$”, the figure is 77%.
